# Measurements as given in patent US11976083B2, “Inhibitors of peptidylarginine deiminases” (Gilead Sciences, Inc., priority 2020, dated 2024).
# Target: T1, human PAD4 (Homo sapiens, UniProt Q9UM07)
# T1 construct: human PAD4 (NM_012387), A2-P663, was PCR amplified; His-SUMO (N, cleaved yes); made in house; host or cells: E. coli BL21(DE3)
# Test: In vitro PAD4 BAEE biochemical assay
# Settings: BAEE substrate 3 mM, 5 nM PAD4, 2 mM calcium chloride; geometric mean of multiple experiments
# Method in brief: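 PAD4 5 nM, CaCl2 2 mM, BAEE 3 mM final; 50 mM MOPS pH 7.6, 50 mM NaCl, 0.05% Tween-20, 2 mM DTT. Cpd + enzyme 30 min 25 °C; substrate 2 h 25 °C; EDTA stop; OPA detection 1 h. IC50 4-parameter fit.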
# T1 sequence (Q9UM07 2-663): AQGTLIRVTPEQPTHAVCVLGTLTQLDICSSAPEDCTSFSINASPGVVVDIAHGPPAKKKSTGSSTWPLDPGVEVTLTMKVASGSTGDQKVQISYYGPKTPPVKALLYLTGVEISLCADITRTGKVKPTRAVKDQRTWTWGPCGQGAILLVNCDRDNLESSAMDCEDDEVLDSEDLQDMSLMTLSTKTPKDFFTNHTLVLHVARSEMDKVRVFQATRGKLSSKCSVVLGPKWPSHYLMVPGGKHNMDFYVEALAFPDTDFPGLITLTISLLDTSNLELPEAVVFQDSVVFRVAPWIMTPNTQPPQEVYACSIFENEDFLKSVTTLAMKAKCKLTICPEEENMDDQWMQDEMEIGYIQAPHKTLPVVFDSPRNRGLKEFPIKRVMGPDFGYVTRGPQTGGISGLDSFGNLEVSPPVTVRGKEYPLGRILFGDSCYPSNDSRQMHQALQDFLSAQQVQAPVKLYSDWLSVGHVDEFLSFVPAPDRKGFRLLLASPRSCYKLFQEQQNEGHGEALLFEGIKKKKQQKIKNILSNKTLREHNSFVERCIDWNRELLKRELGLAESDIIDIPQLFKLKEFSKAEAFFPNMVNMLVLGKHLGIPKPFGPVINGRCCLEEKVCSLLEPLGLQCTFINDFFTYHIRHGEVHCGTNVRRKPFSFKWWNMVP
row,Compound,IC50
1,"C[C@H]1NC(=O)[C@@H]2C[C@@H]2CCCC(F)(F)Cn2c(-c3nc4cc(C(=O)N5C[C@H](N)[C@@H]6CC[C@H]5C6)cc(F)c4n3C3CC3)cc3ccc1nc32 [Example 682, (2~{R},5~{R},7~{S})-14-[5-[(1~{S},4~{R},5~{R})-4-amino-2-azabicyclo[3.2.1]octane-2-carbonyl]-1-cyclopropyl-7-fluoro-benzimidazol-2-yl]-11,11-difluoro-2-methyl-3,13,19-triazatetracyclo[11.5.2.0^ {5,7}.0^{16,20}] icosa-1(19),14,16(20), 17-tetraen-4-one]",28 nM
2,"COc1cc(C(=O)N[C@@H]2CNC[C@H]3C[C@H]32)cc2nc(-c3cc4ccc5nc4n3CCCCCCC(C)(C)C(=O)N[C@@H]5C)n(C)c12 [Example 201, ~{N}-[(1~{S),5~{S},6~{R})-3-azabicyclo[4.1.0]heptan-5-yl]-7-methoxy-1-methyl-2-[(11~{R})-8,8,11-trimethyl-9-oxo-1,10,19-triazatricyclo[10.5.2.0^{15,18}]nonadeca-12(19),13,15(18),16-tetraen-17-yl]benzimidazole-5-carboxamide]",737 nM
3,"C[C@H]1NC(=O)c2nn(C)nc2CCCCCn2c(-c3nc4cc(C(=O)N[C@H]5CNCC[C@@H]5F)c(F)cc4n3C)cc3ccc1nc32 [Example 546, 2-[(2~{R})-2,7-dimethyl-4-oxo-3,6,7,8,15,21-hexazatetracyclo[13.5.2.0^ {5,9}.0^{18,22}]docosa-1(21),5,8,16,18(22), 19-hexaen-16-yl]-6-fluoro-~{N}-[(3~{S},4~{S})-4-fluoro-3-piperidyl]-1-methyl-benzimidazole-5-carboxamide]",59 nM
4,"COC1CC1n1c(-c2cc3ccc4nc3n2CCCCC[C@@H]2C[C@H]2C(=O)N[C@@H]4C)nc2cc(C(=O)N[C@H]3CNCC[C@@H]3F)c(F)cc21 (stereo partly drawn) [Example 607, 6-fluoro-~{N}-[(3~{S),4~ {S})-4-fluoro-3-piperidyl]-1-(2-methoxycyclopropyl)-2-[(2~{R},5~{R},7~{R})-2-methyl-4-oxo-3,13,19-triazatetracyclo[11.5.2.0^ {5,7}.0^{16,20}]icosa-1(18),14,16,19-tetraen-14-yl]benzimidazole-5-carboxamide]",51 nM
5,"COc1cc(C(=O)N2[C@H]3CC[C@@H]2[C@H](N)C3)cc2nc(-c3cc4ccc5nc4n3CCCCCOCC(=O)N[C@@H]5C)c(C)n12 [Example 247, (11~{R})-17-[7-[(1~{R},2~{R},4~{S})-2-amino-7-azabicyclo[2.2.1]heptane-7-carbonyl]-5-methoxy-3-methyl-imidazo[1,2-a]pyridin-2-yl]-11-methyl-7-oxa-1,10,19-triazatricyclo[10.5.2.0^{15,18}]nonadeca-12(19),13,15(18),16-tetraen-9-one]",18 nM
6,"COc1cc(C(=O)N2[C@H]3CC[C@@H]2[C@H](N)C3)cc2nc(-c3cc4ccc5nc4n3CCCCOc3ccccc3C(=O)N[C@@H]5C)n(C)c12 [Example 41, (2~{R})-17-[5-[(1~{R),2~{R},4~{S})-2-amino-7-azabicyclo[2.2.1]heptane-7-carbonyl]-7-methoxy-1-methyl-benzimidazol-2-yl]-2-methyl-11-oxa-3,16,22-triazatetracyclo[14.5.2.0^{5,10}.0^{19,23}] tricosa-1(22),5,7,9,17,19(23),20-heptaen-4-one]",268 nM
7,"COc1cc(C(=O)N2[C@H]3CC[C@@H]2[C@H](N)C3)cc2nc(-c3cc4ccc5cc4n3CCCCCCNC(=O)c3ccccc3-5)n(C)c12 [Example 97, 17-[5-[(1~{R},2~{R},4~{S})-2-amino-7-azabicyclo[2.2.1]heptane-7-carbonyl]-7-methoxy-1-methyl-benzimidazol-2-yl]-9,16-diazatetracyclo[14.5.2.0^{2,7}.0^{19,23}] tricosa-1(22),2,4,6,17,19(23),20-heptaen-8-one]",57 nM
8,"COc1cc(C(=O)N2CCC[C@@H](N)C2)cc2nc(-c3cc4ccc5nc4n3CCOCCOCCOC5C)n(C)c12 (stereo partly drawn) [Example 298, [(3~{R})-3-amino-1-piperidyl]-[7-methoxy-1-methyl-2-(11-methyl-4,7,10-trioxa-1,19-diazatricyclo[10.5.2.0^{15,18}]nonadeca-12(19),13,15(18),16-tetraen-17-yl)benzimidazol-5-yl]methanone]",914 nM
9,"COc1cc(C(=O)N2C[C@H](N)[C@@H]3CC[C@H]2C3)cc2nc(-c3cc4ccc5nc4n3CCCCC[C@]3(F)C[C@H]3C(=O)N[C@@H]5C)n(C)c12 [Example 451, (2~{R},5~{S},7~{S})-14-[5-[(1~{S},4~{R},5~{R})-4-amino-2-azabicyclo[3.2.1]octane-2-carbonyl]-7-methoxy-1-methyl-benzimidazol-2-yl]-7-fluoro-2-methyl-3,13,19-triazatetracyclo[11.5.2.0^{5,7}.0^{16,20}] icosa-1(19),14,16(20),17-tetraen-4-one]",19 nM

# The remaining lines, values ahead:
row,IC50,Compound
1,76 nM,"C[C@H]1NC(=O)[C@@H]2C[C@@H]2C/C=C\CCn2c(-c3nc4cc(C(=O)N[C@H]5CNCC[C@@H]5F)c(F)cc4n3C)cc3ccc1nc32 [Example 521, 6-fluoro-~{N}-[(3~ {S},4~{S})-4-fluoro-3-piperidyl]-1-methyl-2-[(2~{R},5~{R},7~ {S},9~{Z})-2-methyl-4-oxo-3,13,19-triazatetracyclo[11.5.2.0^ {5,7}.0^{16,20}]icosa-1(19),9,14,16(20), 17-pentaen-14-yl] benzimidazole-5-carboxamide]"
2,63 nM,"C[C@H]1NC(=O)[C@@H]2[C@@H](CCCCCn3c(-c4nc5cc(C(=O)N[C@H]6CNCC[C@@H]6F)c(F)cc5n4C4CC4)cc4ccc1nc43)C2(F)F [Example 393, 1-cyclopropyl-2-[(2~{R},5~{S},7~{R})-6,6-difluoro-2-methyl-4-oxo-3,13,19-triazatetracyclo[11.5.2.0^{5,7}.0^{16,20}]icosa-1(19),14,16(20),17-tetraen-14-yl]-6-fluoro-~{N}-[(3~{S},4~{S})-4-fluoro-3-piperidyl]benzimidazole-5-carboxamide]"
3,27 nM,"COc1cc(C(=O)N2C[C@H](N)[C@@H]3CC[C@H]2C3)cc2nc(-c3cc4ccc5nc4n3CCCCC[C@@H]3C[C@@]3(C)C(=O)N[C@@H]5C)n(C)c12 [Example 917, (2~{R},5~{R},7~{R})-14-[5-[(1~{S),4~{R},5~{R})-4-amino-2-azabicyclo[3.2.1]octane-2-carbonyl]-7-methoxy-1-methyl-benzimidazol-2-yl]-2,5-dimethyl-3,13,19-triazatetracyclo[11.5.2.0^ {5,7}.0^{16,20}]icosa-1(19), 14,16(20),17-tetraen-4-one]"
4,34 nM,"C[C@H]1NC(=O)c2ccc(Cl)nc2CCCCCn2c(-c3nc4cc(C(=O)N5C[C@H](N)[C@@H]6CC[C@H]5C6)cc(F)c4n3C3CC3)cc3cc(F)c1nc32 [Example 895, (2~{R})-17-[5-[(1~{S},4~{R}, 5~{R})-4-amino-2-azabicyclo [3.2.1]octane-2-carbonyl]-1-cyclopropyl-7-fluoro-benzimidazol-2-yl]-8-chloro-21-fluoro-2-methyl-3,9,16,22-tetrazatetracyclo[14.5.2.0^ {5,10).0^{19,23}]tricosa-1(22),5(10),6,8,17,19(23),20-heptaen-4-one]"
5,65 nM,"COc1cc(C(=O)N2CC[C@@H](OC)[C@@H](N)C2)cc2nc(-c3cc4ccc5nc4n3CCCCCc3nccnc3C(=O)N(C)[C@@H]5C)n(C)c12 [Example 855, (2~{R})-17-[5-[(3~{S},4~{R})-3-amino-4-methoxy-piperidine-1-carbonyl]-7-methoxy-1-methyl-benzimidazol-2-yl]-2,3-dimethyl-3,6,9,16,22-pentazatetracyclo[14.5.2.0^ {5,10}.0^1923]tricosa-1(22),, 5(10),6,8,17,19(23),20-heptaen-4-one]"
6,67 nM,"C[C@H]1NC(=O)[C@@H]2C[C@H]2CCCCCn2c(-c3nc4cc(C(=O)N[C@H]5CNCC[C@@H]5F)c(F)cc4n3CCOC(F)(F)F)cc3ccc1nc32 [Example 599, 6-fluoro-~{N}-[(3~{S},4~{S})-4-fluoro-3-piperidyl]-2-[(2~{R}, 5~{R},7~{R})-2-methyl-4-oxo-3,13,19-triazatetracyclo[11.5.2.0^ {5,7}.0^{16,20}]icosa-1(19),14,16(20),17-tetraen-14-yl]-1-[2-(trifluoromethoxy)ethyl]benzimidazole-5-carboxamide]"
7,4960 nM,"COc1cc(C(=O)N2CCC[C@@H](N)C2)cc2nc(-c3cc4ccc5nc4n3CCCCCCC(=O)Nc3ccncc3-5)n(C)c12 [Example 45, 17-[5-[(3~{R})-3-aminopiperidine-1-carbonyl]-7-methoxy-1-methyl-benzimidazol-2-yl]-4,8,16,22-tetrazatetracyclo[14.5.2.0^{2,7}.0^{19,23}] tricosa-1(22),2,4,6,17,19(23),20-heptaen-9-one]"
8,70 nM,"COc1cc(C(=O)N2C[C@H]3C[C@@H]2[C@@H]3N)cc2nc(-c3cc4ccc5nc4n3CCCCCCC(C)(C)C(=O)N[C@@H]5C)n(C)c12 [Example 667, (11~{R})-17-[5-[(1~{R},4~ {R},5~{R})-5-amino-2-azabicyclo[2.1.1]hexane-2-carbonyl]-7-methoxy-1-methyl-benzimidazol-2-yl]-8,8,11-trimethyl-1,10,19-triazatricyclo[10.5.2.0^ {15,18}]nonadeca-12(19), 13,15(18),16-tetraen-9-one]"
9,24 nM,"CO[C@@H]1CCN(C(=O)c2cc(F)c3c(c2)nc(-c2cc4ccc5nc4n2CCCCCc2nc4ccccc4nc2C(=O)N[C@@H]5C)n3C2CC2)C[C@@H]1N [Example 828, (2~{R})-21-[5-[(3~{S), 4~{R})-3-amino-4-methoxy-piperidine-1-carbonyl]-1-cyclopropyl-7-fluoro-benzimidazol-2-yl]-2-methyl-3,6,13,20,26-pentazapentacyclo [18.5.2.0^{5,14}.0^{7, 12}.0^{23,27}]heptacosa-1(26),5(14),6,8,10,12,21,23(27), 24-nonaen-4-one]"
